Measurements reported in PubChem BioAssay AID732 (Emory University Molecular Libraries Screening Center, 2007).
Values joined by “and” are separate entries in the source; they are usually repeats but may differ in a detail not shown here. Identical values can stand only once. Active and inactive are the calls of the source. How the calls were made is not given here.

Test system: in vivo angiogenesis, blood vessel count
Assay: angiogenesis inhibition in living animals, in vivo study, HTS (AID 732);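 further: zebrafish embryos dosed at one day post fertilization; 0% = reference inhibitor and 100% = plate mean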
Conditions: hits give low values;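 tested at 30 µM in the well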

Row | Compound | vessel count % control
1 | CCCC(CCC)C(=O)O | 89.7% (inactive)
2 | CN1CCN(c2nc3cc(C(F)(F)F)ccc3n3cccc23)CC1 | 100% (inactive)
3 | CC(C)C[C@H](NC(=O)[C@@H](O)[C@H](N)Cc1ccccc1)C(=O)O | 123% (inactive)
4 | O=c1oc(Cl)c(Cl)c2ccccc12 | 104% (inactive)
5 | CCCCOC(=O)NS(=O)(=O)c1sc(CC(C)C)cc1-c1ccc(Cn2c(CC)nc3c(C)cc(C)nc32)cc1 | 89% (inactive)
6 | C=CC(N)CCC(=O)O (stereo not drawn) | 85.7% (inactive)
7 | C#CC(N)CCC(=O)O (stereo not drawn) | 80% (inactive)
8 | NC(N)=NC(N)=Nc1cccc(Cl)c1 | 103% (inactive)
9 | CCN(CC)CCOC(=O)C1(C2CCCCC2)CCCCC1 | 86.4% (inactive)
10 | NNc1nncc2ccccc12 | 92.2% (inactive)
11 | N=c1c[n+](N2CCOCC2)[n-]o1 | 110% (inactive)
12 | CN1C[C@@H](CS(=O)(=O)N(C)C)C[C@@H]2c3cccc4c3c(cn4C)C[C@H]21 | 103% (inactive)
13 | CN1CCc2cc(Cl)c(O)cc2[C@@H](c2ccccc2)C1 | 97.5% (inactive)
14 | COC(=O)C1=C(C)NC(C)=C(C(=O)OCCN(C)Cc2ccccc2)C1c1cccc([N+](=O)[O-])c1 (stereo not drawn) | 65.5% (inactive)
15 | N[C@@H](CCCC(=O)O)C(=O)O | 130% (inactive)
16 | Clc1ccc2c(c1)C(N1CCNCC1)=Nc1ccccc1O2 | 98.2% (inactive)
17 | COc1ccc(NC(=O)/C=C/c2ccc(Cl)cc2)cc1 | 106% (inactive)
18 | O=c1[nH]c2ccccc2c2ccccc12 | 103% (inactive)
19 | CC(C)c1cccc(C(C)C)c1O | 99.6% (inactive)
20 | CCCn1c(=O)c2c(ncn2C)n(CCC)c1=O | 98.7% (inactive)
21 | CCn1cc(C(=O)O)c(=O)c2cc3c(cc21)OCO3 | 121% (inactive)
22 | O=[N+]([O-])c1cccc2c(Br)[nH]nc12 | 99.9% (inactive)
23 | CN1CCC[C@H]1c1cccnc1 | 120% (inactive)
24 | CC(C)(C)[C@]1(O)CCN2C[C@H]3c4ccccc4CCc4cccc(c43)[C@@H]2C1 | 71.1% (inactive) and 90% (inactive)
25 | CCCn1c(=O)c2[nH]c(C3CCCC3)nc2n(CCCOC(=O)c2ccc(S(=O)(=O)F)cc2)c1=O | 117% (inactive)
26 | NC(N)=NOCC[C@H](N)C(=O)O | 94.1% (inactive)

Row | Compound | vessel count % control
27 | CC(C)COCC(CN(Cc1ccccc1)c1ccccc1)N1CCCC1 (stereo not drawn) | 104% (inactive)
28 | CCCn1c(=O)c2[nH]c(-c3ccc(S(=O)(=O)O)cc3)nc2n(CCC)c1=O | 70.2% (inactive)
29 | Cc1ccc(Cl)c(Nc2ccccc2C(=O)O)c1Cl | 90.3% (inactive)
30 | CNC[C@H](O)c1cccc(O)c1 | 109% (inactive)
31 | COc1ccc2c(c1OC)C(=O)O[C@@H]2[C@H]1c2c(cc3c(c2OC)OCO3)CCN1C | 127% (inactive)
32 | CN1CCc2c(cc(O)c(O)c2Cl)C(c2cccc(Cl)c2)C1 (stereo not drawn) | 118% (inactive)
33 | Nc1ccc(N2C(=O)c3ccccc3C2=O)c(Cl)c1 | 78.4% (inactive)
34 | CN1CCN(c2ccc3ccccc3n2)CC1 | 104% (inactive)
35 | CCCCCCCCC(=O)NCc1ccc(O)c(OC)c1 | 98.1% (inactive)
36 | Cc1cn([C@H]2C[C@@H](N=[N+]=[N-])[C@@H](CO)O2)c(=O)[nH]c1=O | 91.6% (inactive)
37 | C=C[C@H]1CN2CCC1C[C@H]2[C@H](O)c1ccnc2ccc(OC)cc12 (stereo partly drawn) | 98% (inactive)
38 | COC(=O)c1c(-c2cc(OC)c(OC)c(OC)c2)c2ccc(OCc3ccccn3)cc2c(=O)n1-c1ccc(N)cc1 | 109% (inactive)
39 | O=C1C(c2c(O)[nH]c3ccccc23)=Nc2ccc(Br)cc21 | 108% (inactive)
40 | CN1CCN(C2=Nc3ccccc3Oc3ccc(Cl)cc32)CC1 | 123% (inactive)
41 | N#CC(Cc1ccc(O)c(O)c1)C(=O)N1CCc2ccccc21 (stereo not drawn) | 132% (inactive)
42 | C[C@]12CC[C@H](OS(=O)(=O)O)CC1=CC[C@@H]1[C@@H]2CC[C@]2(C)C(=O)CC[C@@H]12 | 90.1% (inactive)
43 | CC1(C)C(=O)N(CCN2CCC(C(=O)c3ccc(F)cc3)CC2)c2ccccc21 | 118% (inactive)
44 | Nc1nc(OCc2ccccc2)c2[nH]cnc2n1 | 91% (inactive)
45 | CCCCC/C=C\CC(O)/C=C/c1cccc(CC(O)CCCCO)n1 (stereo not drawn) | 100% (inactive)
46 | OC[C@H]1NC[C@@H](O)[C@@H]1O | 96% (inactive)
47 | CC12CCC3C(CCC4=C(O)C(=O)CCC43C)C1CCC2=O (stereo not drawn) | 109% (inactive)
48 | O=Nc1c(-c2c(O)[nH]c3ccc(Cl)cc23)[nH]c2ccccc12 | 88.2% (inactive)
49 | Nc1ccc2c3c(cccc13)C(=O)NC2=O | 0% (inactive)
50 | NCCc1cnc[nH]1 | 93.3% (inactive)
51 | CC(=O)Oc1cc(C(C)C)c(OCCN(C)C)cc1C | 109% (inactive)
52 | CC(C)(C)NCC(O)COc1nsnc1N1CCOCC1 (stereo not drawn) | 101% (inactive)

Row | Compound | vessel count % control
53 | NCC(O)(CS(=O)(=O)O)c1ccc(Cl)cc1 (stereo not drawn) | 94.5% (inactive)
54 | CCCn1c(=O)[nH]c(=O)c2[nH]cnc21 | 97.5% (inactive)
55 | C#CCN1C(C)=C(C(=O)OC)C(c2cccc([N+](=O)[O-])c2)C(C(=O)OCC)=C1C (stereo not drawn) | 132% (inactive)
56 | Oc1ccc2c3c1O[C@H]1[C@@H](O)CC[C@@]4(O)C(C2)N(CC2CCC2)CCC314 (stereo partly drawn) | 81.2% (inactive)
57 | N[C@@H](Cc1ccc(O)c(I)c1)C(=O)O | 108% (inactive)
58 | CCCN1CCC[C@@H](c2cccc(O)c2)C1 | 91.2% (inactive)
59 | CC(CCc1ccccc1)NC(C)C(O)c1ccc(O)cc1 (stereo not drawn) | 98.4% (inactive)
60 | CCN(CC)CCNC(=O)c1ccc(N)cc1 | 139% (inactive)
61 | CC(C)C(=O)Nc1ccc([N+](=O)[O-])c(C(F)(F)F)c1 | 113% (inactive)
62 | CCOC(=O)c1cnc2c(cnn2CC)c1NN=C(C)C | 108% (inactive)
63 | CN(C)CCCN1c2ccccc2Sc2ccc(C(F)(F)F)cc21 | 105% (inactive)
64 | Nn1nnc2ccccc21 | 109% (inactive)
65 | CC[C@H]1CN2CCc3cc(OC)c(OC)cc3[C@@H]2C[C@@H]1C[C@H]1NCCc2cc(OC)c(OC)cc21 | 103% (inactive)
66 | Fc1ccc(CN(C2=NCCN2)c2c(Cl)cccc2Cl)cc1 | 92.2% (inactive)
67 | NC(C(=O)O)c1cc(=O)[nH]o1 (stereo not drawn) | 134% (inactive)
68 | Cc1cccc(C(=O)NCN2CCN(c3ccccc3C#N)CC2)c1 | 110% (inactive)
69 | CN(C)c1cc2c(Nc3ccc4c(cnn4Cc4ccccc4)c3)ncnc2cn1 | 84.7% (inactive)
70 | NCCS(=O)(=O)O | 96.7% (inactive)
71 | [Li+] | 0% (inactive)
72 | CN1CCN(CC(=O)N2c3ccccc3C(=O)Nc3cccnc32)CC1 | 95.1% (inactive)
73 | Cn1cnc(CCN)c1 | 99.8% (inactive)
74 | CCCCC1C(=O)N(c2ccccc2)N(c2ccccc2)C1=O | 93.9% (inactive)
75 | Cc1oncc1C(=O)Nc1ccc(C(F)(F)F)cc1 | 81.6% (inactive)
76 | COc1cc2nc(N3CCN(C(=O)C4COc5ccccc5O4)CC3)nc(N)c2cc1OC (stereo not drawn) | 103% (inactive)
77 | CNCC(O)c1ccc(O)c(O)c1 (stereo not drawn) | 123% (inactive)
78 | CCSC(N)=Nc1ccc(C(F)(F)F)cc1 | 87.5% (inactive)

Row | Compound | vessel count % control
79 | C/C=C(/C)C(=O)O[C@H]1C(C)=C2[C@H]([C@@H]1OC(=O)CCCCCCC)[C@@](C)(OC(C)=O)C[C@H](OC(=O)CCC)[C@@]1(O)[C@H]2OC(=O)[C@@]1(C)O | 0% (inactive)
80 | NC(CCP(=O)(O)O)C(=O)O (stereo not drawn) | 88.9% (inactive)
81 | O=C(O)CCC(=O)N1CCCC1C(=O)O (stereo not drawn) | 109% (inactive)
82 | CNCCC=C1c2ccccc2CCc2ccccc21 | 103% (inactive)
83 | O=C1C(c2c(O)[nH]c3c(Cl)ccc(Cl)c23)=Nc2ccc(Br)cc21 | 121% (inactive)
84 | CC(=O)O[C@]1(C(C)=O)CC[C@H]2[C@@H]3C=C(Cl)C4=CC(=O)[C@@H]5C[C@@H]5[C@]4(C)[C@H]3CC[C@@]21C | 71.2% (inactive)
85 | N=C(N)SCCN | 110% (inactive)
86 | C#CCN[C@H](C)Cc1ccccc1 | 114% (inactive)
87 | COc1ccc(CNC(=O)/C=C/c2ccc3[nH]cc(CCN(C)C)c3c2)cc1 | 75.8% (inactive)
88 | CC(COc1ccc(/C=C/c2ccccc2)cc1)[N+](C)(C)C (stereo not drawn) | 106% (inactive)
89 | COc1ccc(Cc2nccc3cc(OC)c(OC)cc23)cc1OC | 110% (inactive)
90 | CN(C)CCC(c1ccc(Br)cc1)c1ccccn1 (stereo not drawn) | 92.3% (inactive)
91 | O=C(O)c1nn(Cc2ccc(Cl)cc2Cl)c2ccccc12 | 87.2% (inactive)
92 | CC[N+](CC)(CC)CC(=O)Nc1c(C)cccc1C | 85.1% (inactive)
93 | Cc1nccc2c1[nH]c1ccccc12 | 86.1% (inactive)
94 | N#C/C(=C\c1ccc(O)c(O)c1)C(=O)NCCc1ccccc1 | 115% (inactive)
95 | Nc1ccc(CCN2CCN(c3cccc(C(F)(F)F)c3)CC2)cc1 | 96.3% (inactive)
96 | COc1nc(C)nc(Cl)c1NC1=NCCN1 | 81.3% (inactive)
97 | O=C(Cc1ccc(Cl)c(Cl)c1)OCCN1CCCC1 | 81.9% (inactive)
98 | Clc1ccccc1C(c1ccccc1)(c1ccccc1)n1ccnc1 | 114% (inactive)
99 | NC(Cc1cc(O)c(O)cc1O)C(=O)O (stereo not drawn) | 88.2% (inactive)
100 | CN(C)c1nc(N)c(C(=O)N=C(N)N)nc1Cl | 106% (inactive)
101 | CCC1(c2ccc(N)cc2)CCC(=O)NC1=O (stereo not drawn) | 98.8% (inactive)
102 | CC(N)C(=O)OC(C)(C)Cc1ccc(Cl)cc1 (stereo not drawn) | 112% (inactive)
103 | O=c1n(CCCN2CCN(c3cccc(Cl)c3)CC2)nc2ccccn12 | 88% (inactive)
